From patent EP3248604A1, “AGENTS FOR MODULATION OF WNT-TCF SIGNALLING AND USES THEREOF” (UNIVERSITE DE GENEVE, priority 2016, dated 2017) come the findings set out here.

For one data set, the system named is cell proliferation. As to the kind of experiment: BrdU incorporation assay. Conditions: 10 µM; 16h. Type of data set: cell-based. The protocol: Cells incubated in vitro with different compounds were treated in DMEM-F12 with reduced serum (2.5% FBS) for 20 min with BrdU (5-bromo-2'-deoxyuridine; 10mg/ml, Sigma), washed and fixed with fresh paraformaldehyde (PFA; 4%, pH 8) followed by acid treatment and neutralization (Melotti et al., 2014, supra). Antibody analyses used anti-BrdU antibodies (supplied by University of Iowa Hybridoma Bank) and rhodamine-coupled anti-mouse secondary antibodies (Invitrogen Molecular Probes). Nuclei were counterstained with DAPI (4',6-diamidino-2-phenylindole; Sigma).
(Dividing cells build labelled thymidine or BrdU into new DNA.)

For data set [1], the system named is CC14 cells. Description: Epithelial island morphology of CC14 cells. It is filed as cell-based, human. The settings on record: 24h; for epithelial island morphology: 1 µM. As for the experimental part: Similar phenotypes were only observed at 10 µM of CAP1 or 5 µM of CAP3. CAP2 was thus chosen for further detailed analyses.
For data set [2], the system named is WNT-TCF targets. As to the kind of experiment: RT-qPCR gene expression in Ls174T cells. Type of data set: cell-based, human. Conditions: Ls174T; 10 µM; 16h. The protocol: (§1) RT-qPCR was performed as in Melotti et al. (2014, supra) using BioRad equipment and reagents. Cells cultured in nitro were treated with the desired concentration of drug in DMEM-F12 and reduced serum (2.5% FBS) for 16h, unless otherwise noted, and collected in Trizol (Sigma) before total RNA extraction and cDNA synthesis. Primers were as in Table 1. HPRT (gene encoding Hypoxanthine phosphoribosyltransferase 1) and βACTIN were used as housekeeping controls for normalization.
Compounds have been tested for the transcriptional modulation of a restricted TCF signature in human colon cancer Ls174T cells. These included the direct targets AXIN2 (gene encoding a protein axis inhibition protein 2), LGR5 (gene encoding encodes leucine-rich repeat-containing G-protein coupled receptor 5) and cMYC (a regulator gene encoding a transcription factor), which should be repressed by WNT-TCF response antagonists and p21 (or CDKN1A, gene encoding a cyclin-dependent kinase inhibitor that inhibits the complexes of CDK2 and CDK1), which should be induced.
Background: Quantitative PCR measures a nucleic acid by following its amplification.

In data set [3] the test system is WNT-TCF targets. Description: RT-qPCR gene expression in CC14 primary colon cancer cells. Details: cMYC expression: scale not given here. The settings on record: 100 nM; Example 2 cells (CC14). Type of data set: cell-based, human. As for the experimental part:
as §1
(§2) Primary colon cells CC14 were cultured in DMEM-F12 with 10% FBS under standard in vitro conditions.
Primary colon cells CC14, CC36 and mCC11, colon cancer cell lines DLD1, HT29, Ls174T, melanoma cell line MeWo, glioblastoma cell lines U87 and U251, and the lung cancer cell line H358 were cultured in DMEM-F12 with 10% FBS under standard in nitro conditions.

The next data set concerns DLD1 cells. Description: Clonal spheroid assay, DLD1. It is filed as cell-based, human. Conditions: DLD1 pretreated in 2D; normalized over DMSO controls (Figure 11A). The protocol:
(§3) Cells were treated with different concentrations of compounds for 16h in 2D adherent culture, washed, harvested and plated in suspension with serum-free DMEM-F12 media with B27 supplement (1:50 dilution) at 1 cell/well in 96-well format in triplicates. Plated cells were monitored to ensure the presence of single cells in each well and spheroids counted and photographed after 10 days for each round.
(§4) To directly test for a long-lasting repression of WNT-TCF targets by CAP2 clonogenic properties of cancer stem cells were tested. DLD1 and LS174T cells were first treated with CAP2 in 2D culture in vitro followed by removal of the drug, washing with PBS, and plating under non-adherent 3D conditions for clonal spheroid growth in the absence of the drug. After primary spheroid growth, the spheroids were dissociated and replated as single cells for secondary and subsequent clonogenic spheroid formation, also in the absence of the compound of the invention. As negative control DMSO-treatment was used.

The next data set relates to DLD1 xenografts. As to the kind of experiment: DLD1 colon cancer xenograft in Nude mice. Type of data set: in vivo. As for the experimental part:
0.5x10^6 DLD1/ GFP^+ (cells expressing green fluorescent protein) cells were injected per flanks into 6 week-old female Nude mice (Janvier Labs). CAP2 (10mg/kg) complexed with cyclodextrine as vehicle, or vehicle alone, were injected daily intra-peritoneally (IP) once the tumors were palpable (25-50 mm^3). Tumor volumes were measured every other day with a caliper. Animals were sacrificed at the end of experiment and tumors harvested.
CAP2 from four independent batches supplied by Analyticon Discovery was dissolved in DMSO and suspended in 45% beta-cyclodextrin. 45% beta-cyclodextrin was used as vehicle for controls. 150µl of drug or vehicle alone was administered per mouse daily.
GFP^+ DLD1-engrafted mice were treated with cyclodextrin-conjugated CAP2 at 10mg/kg via IP […] starting at the time when tumors were palpable. […] Analyses of gene expression using human-specific primers in treated tumors (using the excised area where remnant DLD-GFP^+ cells could be found) confirmed the repression of human AXIN2, ASCL2 and LGR5 (Table 11).

In another data set the test system is Ls174T cells. As to the kind of experiment: Clonal spheroid assay, Ls174T. It is filed as cell-based, human. Conditions: Ls174T pretreated at 5µM; after three passes. The protocol: as §3, §4
The next data set concerns CYCLIN D1. As to the kind of experiment: Western blot of CYCLIN D1 in DLD1 cells. Conditions: 5 µM CAP2 (batch 3), vs DMSO. It is filed as cell-based, human. The protocol:
Western blot performed according to standard methods.
The effect of CAP2 on WNT-TCF signaling the levels of direct TCF target CYCLIN D1 were measured since it is useful to measure TCF response (Melotti et al., 2014, sura).

The subject of data set [4] is CC14 cells. Description: Live imaging cell proliferation (growth curves). It is filed as cell-based, human. Conditions: 150 nM, vs DMSO. The protocol:
as §2
Live imaging and quantification of total cell mass was performed using a Widefield plate reader, ImageXpress XL with an inbuilt temperature and CO2 controller, and a CoolSnap HQ camera (Photometrics).

Bounds are passed on as bounds.

Regarding `CC1=C(C)C(=O)O[C@@H]([C@@](C)(O)[C@]2(O)CC[C@@]3(O)[C@@H]4CC=C5C[C@@H](O[C@@H]6O[C@H](CO)[C@@H](O)[C@H](O)[C@H]6O)CC(=O)[C@]5(C)[C@H]4CC[C@]23C)C1` [CAP1, (14R,17S,20R,22R)-3β,14,17,20-Tetrahydroxy-1-oxo-witha-5,24-dienolide 3-O-β-D-glucopyranoside], in the data set with cell proliferation, the “reduction of BrdU incorporation” value is above 50%. In addition, in the data set on CC14 cells [1], the epithelial island morphology result was “maintained” and the “concentration at which disrupted morphology phenotype was observed” value was determined as 10 µM. In the data set on WNT-TCF targets [2], this compound displayed an AXIN2 expression of 0.7, a CDKN1A expression of 2.5, an LGR5 expression of 0.2 and a cMYC expression of 0.1. In the data set on WNT-TCF targets [3], this compound returned an AXIN2 expression of 1.1, an LGR5 expression of 0.8 and a cMYC expression of 1.2.
Consider `CC1=C(C)C(=O)O[C@@H]([C@](C)(O)[C@]2(O)CC[C@@]3(O)[C@@H]4CC=C5C=CCC(=O)[C@]5(C)[C@H]4CC[C@]23C)C1` [CAP2], for which, in the data set with DLD1 cells, the “primary 3D clonal spheroids” value is reported as “dose-dependent decrease in primary spheroids”. For the same compound, in the data set with DLD1 xenografts (DLD1 xenograft, Nude mice, 10mg/kg IP), the side effects entry is listed as “without any visible side effects”. Further, the tumor growth entry in the data set on DLD1 xenografts (DLD1 xenograft, Nude mice, cyclodextrin-conjugated CAP2 10mg/kg IP, vs cyclodextrin carrier) was “blockade of tumor growth”. For the same compound, the “number of regressed tumors that re-grew” value in the data set with DLD1 xenografts (four DLD1 regressed tumors, 90 days following drug removal) was “one”. The “clonogenic cancer stem cells in serial spheroid assays” value in the data set on Ls174T cells is reported as “exhaustion of clonogenic cancer stem cells”. Besides, in the data set on CC14 cells [1], the epithelial island morphology result is reported as “totally disrupted”. For the same compound, the “level of CYCLIN D1 (Western blot)” value in the data set with CYCLIN D1 is “decrease in the level of TCF target CYCLIN D1”. Also, the “effect on cell growth (growth curves)” value with CC14 cells [4] was “growth repressive effect”.
